In ChEMBL document CHEMBL4350980, “Synthesis and structure-activity relationships of small-molecular di-basic esters, amides and carbamates as flaviviral protease inhibitors” (Eur J Med Chem, 2019):
The source made the active and inactive calls. No cut-off for these calls is given here.

Key:
[1] = biological target: Genome polyprotein (dengue virus type 2) (UniProt P29990); experiment: (§1) Inhibition of dengue virus serotype 2 His-tagged NS2B cofactor domain-NS3 protease expressed in Escherichia coli at 50 uM using 2-Abz-Nle-Lys-Arg-Arg-Ser-(3-NO2)-Tyr-NH2 as substrate preincubated with enzyme for 15 mins followed by substrate addition measured for every 1 sec for 15 mins by fluorescence plate reader based HPLC analysis relative to control
[2] = biological target: Genome polyprotein (West Nile virus) (UniProt P06935); experiment: as §1, with “West Nile” for “dengue”, “virus” for “virus serotype 2”, “2-Abz-Gly-Leu-Lys-Arg-Gly-Gly-(3-NO2)-Tyr-NH2” for “2-Abz-Nle-Lys-Arg-Arg-Ser-(3-NO2)-Tyr-NH2”, “microplate” for “plate”
Genome polyprotein (West Nile virus), sequence (P06935 whole entry, the tested form may be a part): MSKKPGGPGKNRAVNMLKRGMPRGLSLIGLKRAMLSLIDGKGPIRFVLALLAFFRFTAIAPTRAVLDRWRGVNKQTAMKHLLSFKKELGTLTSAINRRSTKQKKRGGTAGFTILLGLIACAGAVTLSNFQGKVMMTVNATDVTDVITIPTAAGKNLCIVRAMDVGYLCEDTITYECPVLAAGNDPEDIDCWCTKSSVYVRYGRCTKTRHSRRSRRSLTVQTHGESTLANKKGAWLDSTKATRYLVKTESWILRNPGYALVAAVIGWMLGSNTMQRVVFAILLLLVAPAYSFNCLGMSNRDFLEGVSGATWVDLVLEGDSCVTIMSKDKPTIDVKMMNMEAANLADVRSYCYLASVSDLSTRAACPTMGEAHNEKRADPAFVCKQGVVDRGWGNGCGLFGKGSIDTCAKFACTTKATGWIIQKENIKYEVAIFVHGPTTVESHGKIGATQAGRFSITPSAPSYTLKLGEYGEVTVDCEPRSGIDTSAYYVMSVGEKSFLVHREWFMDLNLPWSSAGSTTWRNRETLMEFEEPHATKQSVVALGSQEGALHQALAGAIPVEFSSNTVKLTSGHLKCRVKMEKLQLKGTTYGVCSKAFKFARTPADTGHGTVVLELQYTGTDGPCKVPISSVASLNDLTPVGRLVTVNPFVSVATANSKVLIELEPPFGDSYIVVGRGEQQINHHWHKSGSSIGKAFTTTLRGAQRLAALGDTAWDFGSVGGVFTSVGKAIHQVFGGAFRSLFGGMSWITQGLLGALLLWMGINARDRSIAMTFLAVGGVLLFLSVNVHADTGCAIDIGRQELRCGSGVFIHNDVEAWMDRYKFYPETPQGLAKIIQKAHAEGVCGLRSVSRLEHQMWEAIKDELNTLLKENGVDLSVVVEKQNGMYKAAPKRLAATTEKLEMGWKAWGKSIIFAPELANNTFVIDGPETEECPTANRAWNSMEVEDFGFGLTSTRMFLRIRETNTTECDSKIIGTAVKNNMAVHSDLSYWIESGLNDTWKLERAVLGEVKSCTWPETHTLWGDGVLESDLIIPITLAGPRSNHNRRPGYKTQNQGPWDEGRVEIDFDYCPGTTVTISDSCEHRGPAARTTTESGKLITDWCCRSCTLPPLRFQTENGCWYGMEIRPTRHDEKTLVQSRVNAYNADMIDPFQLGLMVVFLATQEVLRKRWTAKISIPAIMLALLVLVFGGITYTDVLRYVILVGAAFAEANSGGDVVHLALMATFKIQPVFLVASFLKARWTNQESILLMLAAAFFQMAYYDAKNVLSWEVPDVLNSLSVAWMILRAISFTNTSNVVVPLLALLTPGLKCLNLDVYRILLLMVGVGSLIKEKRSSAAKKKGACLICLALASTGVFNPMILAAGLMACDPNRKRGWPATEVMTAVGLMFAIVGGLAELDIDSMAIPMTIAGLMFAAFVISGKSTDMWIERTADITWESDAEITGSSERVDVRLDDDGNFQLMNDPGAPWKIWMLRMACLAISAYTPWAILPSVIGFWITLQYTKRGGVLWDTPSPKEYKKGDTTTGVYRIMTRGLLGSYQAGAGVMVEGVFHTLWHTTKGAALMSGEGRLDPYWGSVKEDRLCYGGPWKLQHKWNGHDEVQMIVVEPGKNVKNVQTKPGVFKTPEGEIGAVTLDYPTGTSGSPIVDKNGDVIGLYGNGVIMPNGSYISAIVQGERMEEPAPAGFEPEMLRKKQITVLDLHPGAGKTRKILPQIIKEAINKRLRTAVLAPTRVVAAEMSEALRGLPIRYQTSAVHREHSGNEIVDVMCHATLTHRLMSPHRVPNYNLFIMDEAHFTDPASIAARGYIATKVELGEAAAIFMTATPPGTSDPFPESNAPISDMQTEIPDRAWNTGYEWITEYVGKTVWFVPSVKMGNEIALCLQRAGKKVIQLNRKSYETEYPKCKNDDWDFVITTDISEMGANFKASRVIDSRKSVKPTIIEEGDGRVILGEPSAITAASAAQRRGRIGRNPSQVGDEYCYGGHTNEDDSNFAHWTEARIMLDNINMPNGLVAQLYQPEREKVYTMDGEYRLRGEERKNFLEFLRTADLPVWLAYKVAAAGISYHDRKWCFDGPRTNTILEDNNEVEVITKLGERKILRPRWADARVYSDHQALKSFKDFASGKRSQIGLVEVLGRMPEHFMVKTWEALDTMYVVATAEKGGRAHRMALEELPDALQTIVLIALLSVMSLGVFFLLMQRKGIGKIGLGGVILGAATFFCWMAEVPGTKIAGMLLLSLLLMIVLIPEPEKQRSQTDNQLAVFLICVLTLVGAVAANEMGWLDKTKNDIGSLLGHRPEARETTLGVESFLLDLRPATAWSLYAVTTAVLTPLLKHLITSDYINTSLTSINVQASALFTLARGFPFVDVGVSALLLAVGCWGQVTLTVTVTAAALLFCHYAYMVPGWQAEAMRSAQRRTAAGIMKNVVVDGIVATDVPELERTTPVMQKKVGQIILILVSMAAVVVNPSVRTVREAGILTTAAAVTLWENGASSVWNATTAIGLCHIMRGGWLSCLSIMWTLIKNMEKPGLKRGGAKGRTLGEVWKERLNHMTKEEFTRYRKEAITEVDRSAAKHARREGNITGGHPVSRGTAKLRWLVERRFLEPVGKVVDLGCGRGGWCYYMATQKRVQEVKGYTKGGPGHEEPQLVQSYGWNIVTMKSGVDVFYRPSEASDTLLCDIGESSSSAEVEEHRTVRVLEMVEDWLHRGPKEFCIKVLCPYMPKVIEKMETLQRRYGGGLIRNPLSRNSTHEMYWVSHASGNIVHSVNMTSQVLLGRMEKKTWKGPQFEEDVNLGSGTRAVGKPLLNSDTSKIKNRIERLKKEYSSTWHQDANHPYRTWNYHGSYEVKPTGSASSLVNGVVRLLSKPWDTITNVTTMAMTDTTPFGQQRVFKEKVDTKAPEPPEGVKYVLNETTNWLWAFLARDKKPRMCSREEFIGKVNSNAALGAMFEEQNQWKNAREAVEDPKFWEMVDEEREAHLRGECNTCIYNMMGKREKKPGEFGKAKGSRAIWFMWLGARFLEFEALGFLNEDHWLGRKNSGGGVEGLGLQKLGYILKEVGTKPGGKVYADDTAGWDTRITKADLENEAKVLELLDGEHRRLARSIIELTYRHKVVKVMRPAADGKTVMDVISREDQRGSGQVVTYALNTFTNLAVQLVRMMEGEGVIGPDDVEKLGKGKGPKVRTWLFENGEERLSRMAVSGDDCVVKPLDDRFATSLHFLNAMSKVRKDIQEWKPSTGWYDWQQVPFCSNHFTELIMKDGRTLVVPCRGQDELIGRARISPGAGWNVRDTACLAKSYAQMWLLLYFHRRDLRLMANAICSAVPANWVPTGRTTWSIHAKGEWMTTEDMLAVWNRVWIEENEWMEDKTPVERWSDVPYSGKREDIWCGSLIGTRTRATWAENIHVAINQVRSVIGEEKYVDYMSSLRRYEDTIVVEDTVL

Prothrombin [3] = biological target: T1, Prothrombin (Homo sapiens, UniProt P00734); experiment: Inhibition of thrombin (unknown origin) at 25 uM using Boc-Val-Pro-Arg-AMC as substrate preincubated with enzyme for 15 mins followed by addition of substrate by fluorescence plate reader analysis relative to control
Trypsin [4] = biological target: T2, Trypsin (Homo sapiens, UniProt P07477+P07478+P35030); experiment: Inhibition of trypsin (unknown origin) at 50 uM using Boc-Val-Pro-Arg-AMC as substrate preincubated with enzyme for 15 mins followed by addition of substrate by fluorescence plate reader analysis relative to control; assay type: protein assay
Trypsin [5] = biological target: T2, Trypsin; experiment: Inhibition of trypsin (unknown origin) using Boc-Val-Pro-Arg-AMC as substrate preincubated with enzyme for 15 mins followed by addition of substrate by fluorescence plate reader analysis; assay type: protein assay
[6] = biological target: Genome polyprotein (dengue virus type 2) (UniProt P29990); experiment: as §1, with “1 mM” for “50 uM”
[7] = biological target: Genome polyprotein (West Nile virus) (UniProt P06935); experiment: Inhibition of West Nile virus His-tagged NS2B cofactor domain-NS3 protease expressed in Escherichia coli at 1 mM using 2-Abz-Gly-Leu-Lys-Arg-Gly-Gly-(3-NO2)-Tyr-NH2 as substrate preincubated with enzyme for 15 mins followed by substrate addition measured for every 1 sec for 15 mins by fluorescence microplate reader based HPLC analysis relative to control
Prothrombin [8] = biological target: T1, Prothrombin; experiment: Inhibition of thrombin (unknown origin) at 500 uM using Boc-Val-Pro-Arg-AMC as substrate preincubated with enzyme for 15 mins followed by addition of substrate by fluorescence plate reader analysis relative to control
Trypsin [9] = biological target: T2, Trypsin; experiment: Inhibition of trypsin (unknown origin) at 1 mM using Boc-Val-Pro-Arg-AMC as substrate preincubated with enzyme for 15 mins followed by addition of substrate by fluorescence plate reader analysis relative to control; assay type: protein assay
[10] = biological target: Genome polyprotein (dengue virus type 2) (UniProt P29990); experiment: (§2) Time-dependent inhibition of dengue virus serotype 2 His-tagged NS2B cofactor domain-NS3 protease expressed in Escherichia coli at 200 uM using 2-Abz-Nle-Lys-Arg-Arg-Ser-(3-NO2)-Tyr-NH2 as substrate preincubated with enzyme for 20 to 40 mins followed by substrate addition measured for every 1 sec for 15 mins by fluorescence plate reader based HPLC analysis
[11] = biological target: Genome polyprotein (dengue virus type 2) (UniProt P29990); experiment: Reversible covalent binding affinity at dengue virus serotype 2 His-tagged NS2B cofactor domain-NS3 protease expressed in Escherichia coli assessed as acyl-enzyme adduct formation at 100 uM incubated for 5 to 24 hrs by ESI-MS analysis
Prothrombin [12] = biological target: T1, Prothrombin; experiment: Inhibition of thrombin (unknown origin) using Boc-Val-Pro-Arg-AMC as substrate preincubated with enzyme for 15 mins followed by addition of substrate by fluorescence plate reader analysis
[13] = Stability of compound in TRIS assay buffer at pH 7.5 to 9; assay type: physicochemical
[14] = Stability of compound in phosphate buffer at pH 7.5 to 11; assay type: physicochemical
[15] = biological target: Genome polyprotein (dengue virus type 2) (UniProt P29990); experiment: as §2, with “50” for “200”
Genome polyprotein = Genome polyprotein (dengue virus type 2, UniProt P29990); experiment: as §1, with “coli” for “coli at 50 uM”, “analysis” for “analysis relative to control”
[16] = biological target: Genome polyprotein (dengue virus type 2) (UniProt P29990); experiment: Inhibition of dengue virus serotype 2 His-tagged NS2B catalytic domain-NS3 protease expressed in Escherichia coli at 100 uM using 2-Abz-Nle-Lys-Arg-Arg-Ser-(3-NO2)-Tyr-NH2 as substrate preincubated with enzyme for 1 hr followed by substrate addition measured for every 1 sec for 15 mins by fluorescence plate reader based HPLC analysis relative to control
[17] = biological target: Genome polyprotein (dengue virus type 2) (UniProt P29990); experiment: Reversible covalent binding affinity at dengue virus serotype 2 His-tagged NS2B cofactor domain-NS3 protease expressed in Escherichia coli assessed as acyl-enzyme adduct formation at 100 uM incubated for 5 to 30 mins by ESI-MS analysis
[18] = biological target: Genome polyprotein (dengue virus type 2) (UniProt P29990); experiment: Reversible covalent binding affinity at dengue virus serotype 2 His-tagged NS2B cofactor domain-NS3 protease expressed in Escherichia coli assessed as acyl-enzyme adduct formation at 100 uM incubated for 20 hrs by ESI-MS analysis
[19] = Stability of compound in TRIS buffer assessed as half life at pH 9; assay type: physicochemical
[20] = Stability of compound in phosphate buffer assessed as half life at pH 11; assay type: physicochemical
[21] = Stability of compound in phosphate buffer at pH 9; assay type: physicochemical
[22] = Stability of compound in TRIS buffer at pH 7.5; assay type: physicochemical
[23] = biological target: Genome polyprotein (dengue virus type 2) (UniProt P29990); experiment: Reversible covalent inhibition of dengue virus serotype 2 His-tagged NS2B catalytic domain-NS3 protease expressed in Escherichia coli using 2-Abz-Nle-Lys-Arg-Arg-Ser-(3-NO2)-Tyr-NH2 as substrate preincubated initially at 100 uM with enzyme for 1 hr followed by dilution with assay buffer to achieve compound concentration of 3.33 uM prior to substrate addition measured immediately after dilution by fluorescence plate reader based HPLC analysis
[24] = biological target: Genome polyprotein (dengue virus type 2) (UniProt P29990); experiment: Reversible covalent inhibition of dengue virus serotype 2 His-tagged NS2B catalytic domain-NS3 protease expressed in Escherichia coli using 2-Abz-Nle-Lys-Arg-Arg-Ser-(3-NO2)-Tyr-NH2 as substrate preincubated initially at 100 uM with enzyme for 1 hr followed by dilution with assay buffer to achieve compound concentration of 3.33 uM prior to substrate addition measured after dilution over time by fluorescence plate reader based HPLC analysis
[25] = biological target: Genome polyprotein (dengue virus type 2) (UniProt P29990); experiment: Reversible covalent inhibition of dengue virus serotype 2 His-tagged NS2B catalytic domain-NS3 protease expressed in Escherichia coli at 100 uM using 2-Abz-Nle-Lys-Arg-Arg-Ser-(3-NO2)-Tyr-NH2 as substrate preincubated with enzyme for 1 hr followed by dilution prior to substrate addition measured at 120 mins after dilution by fluorescence plate reader based HPLC analysis
dengue virus type 2 = experiment: Reversible covalent binding affinity at dengue virus serotype 2 His-tagged NS2B cofactor domain-NS3 protease S135A mutant expressed in Escherichia coli assessed as acyl-enzyme adduct formation at 100 uM incubated for 24 hrs by ESI-MS analysis
[26] = biological target: Genome polyprotein (dengue virus type 2) (UniProt P29990); experiment: Reversible covalent binding affinity at dengue virus serotype 2 His-tagged NS2B cofactor domain-NS3 protease expressed in Escherichia coli assessed as acyl-enzyme adduct formation at 100 uM incubated for 2 hrs by ESI-MS analysis
[27] = biological target: Genome polyprotein (dengue virus type 2) (UniProt P29990); experiment: Reversible covalent binding affinity at dengue virus serotype 2 His-tagged NS2B cofactor domain-NS3 protease expressed in Escherichia coli assessed as acyl-enzyme adduct formation at 100 uM incubated for 24 hrs by ESI-MS analysis

Structure (SMILES) | inhibition [1] [%] | inhibition [2] [%] | inhibition (Prothrombin [3]) [%] | inhibition (Trypsin [4]) [%] | IC50 (Trypsin [5]) [µM] | inhibition [6] [%] | inhibition [7] [%] | inhibition (Prothrombin [8]) [%] | inhibition (Trypsin [9]) [%] | also measured
N=C(N)NCCCCOC(=O)c1ccc(NC(=N)N)cc1 | 49 | 17.1 | 27.3 | 84 | 8.27 | – | – | – | – | –
N=C(N)Nc1ccc(NC(=O)Oc2ccc(N)cc2)cc1 | 52 | 61.9 | 12.1 | 101 | 46.3 | 52 | 61.9 | 12.1 | 101 | TDI [10]: inactive; Activity [11]: inactive
N=C(N)Nc1ccc(C(=O)Oc2ccc(N)cc2)cc1 | 8.8 | < 5 | 97.1 | 102 | 0.028 | – | – | – | – | IC50 (Prothrombin [12]): 0.8 µM; Stability [13]: Stable; Stability [14]: Stable
CN(C)C(=O)Oc1cc(NC(=N)N)ccc1NC(=O)c1ccc(NC(=N)N)cc1 | – | – | – | – | – | 20.2 | 23.9 | 67.8 | 99.2 | –
N=C(N)Nc1ccc(NC(=O)c2ccc(NC(=N)N)cc2)cc1 | 23.2 | 17.9 | 23.9 | 87.2 | – | – | – | – | – | TDI [15]: inactive; Stability [13]: Stable; Stability [14]: Stable; Activity [11]: inactive
CN(C(=O)Oc1ccc(CN)cc1)c1ccc(CN)cc1 | – | – | – | – | – | 31.3 | 62.9 | 12.2 | 43.9 | –
N=C(N)NCCCCC(=O)Oc1ccc(NC(=N)N)cc1 | 4.6 | < 5 | 72.5 | 65.9 | – | – | – | – | – | –
N=C(N)NCCCC(=O)Oc1ccc(NC(=N)N)cc1 | 4.2 | < 5 | 13.2 | 18.3 | – | – | – | – | – | –
CN(C(=O)Oc1ccc(CN)cc1)c1ccc(N)cc1 | – | – | – | – | – | 22.9 | 59.3 | 46.9 | 95.6 | –
CN(C(=O)Oc1ccc(N)cc1)c1ccc(N)cc1 | – | – | – | – | – | 29.8 | 68 | 72.7 | 95.9 | –
CN(C)C(=O)COC(=O)Cc1ccc(OC(=O)c2ccc(NC(=N)N)cc2)cc1 [CAMOSTAT] | 19.6 | 12.6 | 94 | 100 | 0.0035 | – | – | – | – | –
N=C(N)Nc1ccc(OC(=O)c2ccc(NC(=N)N)cc2)cc1 | 98.1 | 29.8 | 99 | 100 | 0.00135 | – | – | – | – | IC50 (Genome polyprotein): 14.4 µM; IC50 (Prothrombin [12]): 4.08 µM; TDI [15]: Active; inhibition [16]: 100%; Activity [17]: Active; Activity [18]: inactive; half-life [19]: 16.8 min; half-life [20]: 17.8 min; Stability [21]: Stable; Stability [22]: Stable; inhibition [23]: Active; inhibition [24]: inactive; inhibition [25]: inactive; Activity (dengue virus type 2): inactive
CN(C)C(=O)Oc1cc(NC(=N)N)ccc1C(=O)Nc1ccc(CN)cc1 | – | – | – | – | – | 74.4 | 73.3 | 12.4 | 43.7 | –
N=C(N)Nc1ccc(C(=O)Oc2ccc(CN)cc2)cc1 | 40.1 | 36.5 | 92.5 | 101 | 0.00156 | – | – | – | – | IC50 (Prothrombin [12]): 0.53 µM; TDI [15]: Active
CN(C)C(=O)Oc1ccc(NC(=N)N)cc1C(=O)Nc1ccc(CN)cc1 | – | – | – | – | – | 56 | 76.1 | 24.3 | 19.3 | –
N=C(N)NCCCOC(=O)c1ccc(NC(=N)N)cc1 | 56.8 | < 5 | 22.8 | 78.9 | 9.84 | – | – | – | – | Stability [13]: Stable; Stability [14]: Stable
N=C(N)Nc1ccc(C(=O)Oc2cccc(NC(=N)N)c2)cc1 | 51.3 | 17.5 | 100 | 100 | – | – | – | – | – | –
N=C(N)Nc1ccc(C(=O)Nc2cccc(NC(=N)N)c2)cc1 | 36.8 | < 5 | 16.4 | 94.6 | 23.9 | – | – | – | – | –
N=C(N)Nc1ccc(OC(=O)c2ccc(N)cc2)cc1 | 45.4 | < 5 | 76.7 | 101 | 0.00278 | – | – | – | – | IC50 (Prothrombin [12]): 17.6 µM; TDI [15]: Active; Activity [26]: inactive; Activity [27]: Active; Activity (dengue virus type 2): inactive
N=C(N)NCc1ccc(NC(=O)Oc2ccc(N)cc2)cc1 | – | – | – | – | – | 60.8 | 68.8 | 44.4 | 98.4 | –
Nc1ccc(NC(=O)Oc2ccc(N)cc2)cc1 | – | – | – | – | – | 33.7 | 72.8 | 83.3 | 99.2 | –
